Activity calls are given as the source filed them. No cut-off for these calls is given here.
Key:
MCF7 = assay: Antiproliferative activity against human MCF7 cells assessed as inhibition of cell growth measured after 48 hrs by MTT assay; format: functional, cell-based; conditions: MCF7, 48 h
A549 [1] = assay: Induction of apoptosis in human A549 cells assessed as necrotic cells at 0.04 uM measured after 48 hrs by annexin V and PI staining based flow cytometry analysis (reference value: 1.47%); format: functional
HepG2 = assay: Antiproliferative activity against human HepG2 cells assessed as inhibition of cell growth measured after 48 hrs by MTT assay; format: functional, cell-based; conditions: Homo sapiens, HepG2, 48 h
[2] = Antiproliferative activity against human HUVEC cells assessed as inhibition of cell growth measured after 48 hrs by MTT assay; format: toxicity, cell-based; conditions: human, HUVEC cells
ASPC1 = assay: Antiproliferative activity against human ASPC1 cells assessed as inhibition of cell growth measured after 48 hrs by MTT assay; format: functional, cell-based
A549 [3] = assay: cells; conditions: Homo sapiens, A549, 48 h
Description: Antiproliferative activity against human A549 cells assessed as inhibition of cell growth measured after 48 hrs by MTT assay

TE-1 [4] = system: TE-1
Description: (§1) Antiproliferative activity against human TE-1 cells assessed as inhibition of cell growth measured after 48 hrs by MTT assay

A549 [5] = assay: Induction of apoptosis in human A549 cells assessed as viable cells at 0.04 uM measured after 48 hrs by annexin V and PI staining based flow cytometry analysis (reference value: 93.3%); format: functional
[6] = Antiproliferative activity against mouse L929 cells assessed as inhibition of cell growth measured after 48 hrs by MTT assay; format: toxicity, cell-based; conditions: mouse, L929 cells
A549 [7] = assay: Induction of apoptosis in human A549 cells assessed as early apoptotic cells at 0.1 uM measured after 48 hrs by annexin V and PI staining based flow cytometry analysis (reference value: 0.71%); format: functional
[8] = Antiproliferative activity against human MRC5 cells assessed as inhibition of cell growth measured after 48 hrs by MTT assay; format: toxicity, cell-based; conditions: human, MRC5 cells
NCI-H1299 = assay: Antiproliferative activity against human NCI-H1299 cells assessed as inhibition of cell growth measured after 48 hrs by MTT assay; format: functional, cell-based; conditions: Homo sapiens, NCI-H1299, 48 h
BXPC-3 = assay: Antiproliferative activity against human BXPC-3 cells assessed as inhibition of cell growth measured after 48 hrs by MTT assay; format: functional, cell-based; conditions: Homo sapiens, BXPC-3, 48 h
A549 [9] = assay: Induction of apoptosis in human A549 cells assessed as necrotic cells at 0.1 uM measured after 48 hrs by annexin V and PI staining based flow cytometry analysis (reference value: 1.47%); format: functional
NCI-H460 = assay: Antiproliferative activity against human NCI-H460 cells assessed as inhibition of cell growth measured after 48 hrs by MTT assay; format: functional, cell-based; conditions: Homo sapiens, NCI-H460, 48 h
A549 [10] = assay: Induction of apoptosis in human A549 cells assessed as late apoptotic cells at 0.25 uM measured after 48 hrs by annexin V and PI staining based flow cytometry analysis (reference value: 4.70%); format: functional
A549 [11] = assay: Induction of apoptosis in human A549 cells assessed as necrotic cells at 0.25 uM measured after 48 hrs by annexin V and PI staining based flow cytometry analysis (reference value: 1.47%); format: functional
A549 [12] = assay: Induction of apoptosis in human A549 cells assessed as viable cells at 0.1 uM measured after 48 hrs by annexin V and PI staining based flow cytometry analysis (reference value: 93.3%); format: functional
A549 [13] = assay: Induction of apoptosis in human A549 cells assessed as early apoptotic cells at 0.04 uM measured after 48 hrs by annexin V and PI staining based flow cytometry analysis (reference value: 0.71%); format: functional
A549 [14] = assay: Induction of apoptosis in human A549 cells assessed as viable cells at 0.25 uM measured after 48 hrs by annexin V and PI staining based flow cytometry analysis (reference value: 93.3%); format: functional
PANC-1 = assay: Antiproliferative activity against human PANC-1 cells assessed as inhibition of cell growth measured after 48 hrs by MTT assay; format: functional, cell-based; conditions: Homo sapiens, PANC-1, 48 h
[15] = Antiproliferative activity against mouse NIH3T3 cells assessed as inhibition of cell growth measured after 48 hrs by MTT assay; format: toxicity, cell-based; conditions: mouse, NIH3T3 cells
143B = assay: Antiproliferative activity against human 143B cells assessed as inhibition of cell growth measured after 48 hrs by MTT assay; format: functional, cell-based; conditions: Homo sapiens, 143B, 48 h
A549 [16] = assay: Induction of apoptosis in human A549 cells assessed as late apoptotic cells at 0.1 uM measured after 48 hrs by annexin V and PI staining based flow cytometry analysis (reference value: 4.70%); format: functional
HeLa = assay: Antiproliferative activity against human HeLa cells assessed as inhibition of cell growth measured after 48 hrs by MTT assay; format: functional, cell-based; conditions: Homo sapiens, HeLa, 48 h
A549 [17] = assay: Induction of apoptosis in human A549 cells assessed as early apoptotic cells at 0.25 uM measured after 48 hrs by annexin V and PI staining based flow cytometry analysis (reference value: 0.71%); format: functional
A549 [18] = assay: Induction of apoptosis in human A549 cells assessed as late apoptotic cells at 0.04 uM measured after 48 hrs by annexin V and PI staining based flow cytometry analysis (reference value: 4.70%); format: functional
5637 [19] = system: 5637
Description: (§2) Antiproliferative activity against human 5637 cells assessed as inhibition of cell growth measured after 48 hrs by MTT assay

A549 [20] = assay: Antitumor activity against human A549 cells xenografted in BALB/c nude mouse assessed as appearance of various size of tumor necrosis at 2 mg/kg measured after 14 days by H and E staining based analysis; format: functional, organism-based; conditions: time 14.0 day
A549 [21] = assay: Antitumor activity against human A549 cells xenografted in BALB/c nude mouse assessed as inhibition of tumor growth at 2 mg/kg, sc administered every 2 days for 14 days; format: functional, organism-based; conditions: time 14.0 day
TE-1 [22] = assay: cells; conditions: Homo sapiens, TE-1, 48 h
Description: as §1

A549 [23] = assay: Antitumor activity against human A549 cells xenografted in BALB/c nude mouse assessed as increase in apoptosis at 2 mg/kg measured after 14 days by tunel staining based analysis; format: functional, organism-based; conditions: time 14.0 day
5637 [24] = assay: cells; conditions: Homo sapiens, 5637, 48 h
Description: as §2

A549 [25] = assay: Antitumor activity against human A549 cells xenografted in BALB/c nude mouse assessed as decrease in tumor cell proliferation at 2 mg/kg measured after 14 days by Ki67 staining based analysis; format: functional, organism-based; conditions: time 14.0 day
A549 [26] = assay: Antitumor activity against human A549 cells xenografted in BALB/c nude mouse assessed as decrease in tumor cell proliferation at 2 mg/kg measured after 14 days by PCNA staining based analysis; format: functional, organism-based; conditions: time 14.0 day
A549 [27] = assay: Inhibition of colony formation in human A549 cells assessed as suppression of colony formation at 1 nM replaced with fresh medium for every 72 hrs and measured for 15 days by crystal violet staining based assay; format: functional, cell-based; conditions: time 15.0 day
A549 [28] = assay: Antitumor activity against human A549 cells xenografted in BALB/c nude mouse assessed as increase in apoptosis at 2 to 4 mg/kg measured after 14 days by tunel staining based analysis; format: functional, organism-based; conditions: dose 2-4 mg/kg, time 14.0 day
A549 [29] = assay: Antitumor activity against human A549 cells xenografted in BALB/c nude mouse assessed as decrease in tumor cell proliferation at 2 to 4 mg/kg measured after 14 days by PCNA staining based analysis; format: functional, organism-based; conditions: dose 2-4 mg/kg, time 14.0 day
[30] = target: Baculoviral IAP repeat-containing protein 5 (Homo sapiens) (UniProt O15392); assay: Inhibition of Survivin (unknown origin) expressed in HEK293T cells in presence of ILF3/NF110 by Dual luciferase reporter assay; format: cell-based; conditions: dose <= 2000.0 nM
A549 [31] = assay: Antitumor activity against human A549 cells xenografted in BALB/c nude mouse assessed as decrease in tumor cell proliferation at 2 to 4 mg/kg measured after 14 days by Ki67 staining based analysis; format: functional, organism-based; conditions: dose 2-4 mg/kg, time 14.0 day
A549 [32] = assay: Induction of DNA damage in human A549 cells assessed as increase in DNA percentage in tail at low concentration measured after 36 hrs by comet assay; format: functional, cell-based
A549 [33] = assay: Induction of apoptosis in human A549 cells assessed as increase in caspase-3 cleavage at low concentration measured after 48 hrs by Western blot analysis; format: functional, cell-based
A549 [34] = assay: Inhibition of survivin mRNA expression in human A549 cells by Q-PCR analysis; format: functional, cell-based; conditions: dose 0.01-0.1 µM
A549 [35] = assay: Induction of DNA damage in human A549 cells assessed as gammaH2AX accumulation at 0.04 uM by Western blot analysis; format: functional, cell-based
A549 [36] = assay: Induction of autophagy in human A549 cells assessed as formation of GFP-LC3 punctate by confocal fluorescence microscopy analysis; format: functional, cell-based; conditions: dose 0.01-0.1 µM
A549 [37] = assay: Induction of DNA damage in human A549 cells measured after 36 hrs by comet assay; format: functional, cell-based; conditions: dose 0.04-0.1 µM
A549 [38] = assay: Induction of apoptosis in human A549 cells assessed as upregulation of bax level measured after 48 hrs by Western blot analysis; format: functional, cell-based; conditions: dose 0.01-0.1 µM
A549 [39] = assay: Induction of autophagy in human A549 cells assessed as increase in LC3II amount by Western blot analysis; format: functional, cell-based; conditions: dose 0.04-0.1 µM
A549 [40] = assay: Induction of apoptosis in human A549 cells assessed as inhibition of Bcl-2 level measured after 48 hrs by Western blot analysis; format: functional, cell-based; conditions: dose 0.01-0.1 µM
A549 [41] = assay: Antitumor activity against human A549 cells xenografted in BALB/c nude mouse assessed as appearance of tumor necrosis at 4 mg/kg measured after 14 days by H and E staining based analysis; format: functional, organism-based; conditions: time 14.0 day
A549 [42] = assay: Induction of apoptosis in survivin silenced human A549 cells assessed as decrease in apoptotic rate at 0.04 uM measured after 48 hrs by AnnexinV-FITC/PI staining based flow cytometry; format: functional, cell-based
A549 [43] = assay: Induction of oxidative stress in human A549 cells assessed as upregulation of ROS level by DCFH-DA staining based analysis; format: functional, cell-based; conditions: dose 0.04-0.1 µM
A549 [44] = assay: Inhibition of survivin protein expression in human A549 cells by Western blot analysis; format: functional, cell-based; conditions: dose 0.004 µM
[45] = Homo sapiens, A549, 48 h, read-out: Activity

Sequence of Baculoviral IAP repeat-containing protein 5 (Homo sapiens) (O15392 whole entry): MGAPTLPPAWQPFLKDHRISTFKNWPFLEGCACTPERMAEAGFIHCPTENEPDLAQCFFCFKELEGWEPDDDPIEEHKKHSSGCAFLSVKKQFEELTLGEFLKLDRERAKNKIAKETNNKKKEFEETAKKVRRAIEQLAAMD

SMILES	IC50 (MCF7)	Activity (A549 [1])	IC50 (HepG2)	IC50 (A549 [3])	Activity (A549 [7])	IC50 (NCI-H1299)	IC50 (BXPC-3)	Activity (A549 [9])	IC50 (NCI-H460)	Activity (A549 [10])	Activity (A549 [11])	Activity (A549 [13])	IC50 (PANC-1)	IC50 (143B)	Activity (A549 [16])	IC50 (HeLa)	Activity (A549 [17])	Activity (A549 [18])	Activity (A549 [20])	Activity (A549 [21])	further results
Cn1c[n+](C)c2c1C(=O)c1cc3ccccc3cc1C2=O.[Br-]	60 nM	13.9%	360 nM	10 nM	0.55%	540 nM	110 nM	11.5%	160 nM	89.2%	7.92%	1.6%	90 nM	410 nM	79.7%	1860 nM	0.22%	58.5%			IC50 at 48 h [2]: 10500 nM; IC50 (ASPC1; aspc1): 110 nM; IC50 (TE-1 [4]): 30 nM; Activity (A549 [5]): 25.3%; IC50 at 48 h [6]: 13600 nM; IC50 at 48 h [8]: 3980 nM; Activity (A549 [12]): 8.24%; Activity (A549 [14]): 2.43%; IC50 at 48 h [15]: 14200 nM; IC50 5637 [19]: 110 nM
COCC[n+]1c2c(n(Cc3cnccn3)c1C)C(=O)c1ccccc1C2=O.[Br-] [SEPANTRONIUM BROMIDE]	10 nM	24.2%	3720 nM	10 nM	1.54%	120 nM	90 nM	11.7%	100 nM	86.9%	7.79%	1.65%	10 nM	320 nM	76.4%	1800 nM	0.57%	51.1%	Active	inactive	IC50 (ASPC1; Homo sapiens, ASPC1, 48 h): 510 nM; viability at 0.04 µM (A549 [5]; [45]): 22.2%; IC50 (TE-1 [22]): 8 nM; Activity (A549 [23]): Active; IC50 5637 [24]: 110 nM; Activity (A549 [25]): Active; viability at 0.1 µM (A549 [12]; [45]): 11.3%; Activity (A549 [26]): Active; viability at 0.25 µM (A549 [14]; [45]): 4.72%; inhibition (A549 [27]): Active
Cn1c[n+](C)c2c1C(=O)c1cc3ccccc3cc1C2=O																			Active	Active	Activity (A549 [28]): Active; Activity (A549 [29]): Active; inhibition [30]: Dose-Dependent Effect; Activity (A549 [31]): Active; Activity (A549 [32]): Active; Activity (A549 [33]): Active; Activity (A549 [23]): Active; inhibition (A549 [34]): Active; Activity (A549 [35]): Active; Activity (A549 [36]): Dose-Dependent Effect; Activity (A549 [37]): Dose-Dependent Effect; Activity (A549 [38]): Dose-Dependent Effect; Activity (A549 [39]): Dose-Dependent Effect; Activity (A549 [40]): Dose-Dependent Effect; Activity (A549 [41]): Active; Activity (A549 [42]): Active; inhibition (A549 [27]): Active; Activity (A549 [43]): Active; inhibition (A549 [44]): Active

— ChEMBL document CHEMBL5375989, “Pioneering 4,11-Dioxo-4,11-dihydro-1H-anthra[2,3-d]imidazol-3-ium Compounds as Promising Survivin Inhibitors by Targeting ILF3/NF110 for Cancer Therapy” (J Med Chem, 2023)
